Assay results published in patent US9481654B2, “Compositions and methods for inhibition of the JAK pathway” (Rigel Pharmaceuticals, Inc., priority 2006, dated 2016).

Assays:
Format in all cases: cell-based
[1] = test system: IL-4 stimulated CD23 upregulation in human Ramos B cells (JAK-1/JAK-3, Stat-6); test: Assay for Ramos B-Cell Line Stimulated with IL-4 (CD23 upregulation, FACS); conditions: Table III Example 3
Outline: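 Log-phase Ramos B cells (5×10^4 per point, RPMI with 5% serum) pre-incubated with compound or DMSO 1 h at 37° C, then stimulated with IL-4 at 50 units/mL final for 20-24 h. CD23 upregulation measured by staining and flow cytometry.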

[2] = test system: primary human T-cells (IL-2 induced proliferation, JAK-1/JAK-3, Stat-5); test: Primary Human T-Cell Proliferation Assay Stimulated with IL-2 (CellTiter-Glo); conditions: Table III Example 4
Outline: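 Pre-activated peripheral-blood T-cells (TCR/CD28 stimulated, IL-2-maintained) were IL-2-depleted, then plated in Yssel's medium with 80 U/mL IL-2 in the cell suspension and compound in duplicate. Proliferation ran 72 h at 37 °C; viable cells quantified by CellTiter-Glo ATP luminescence, with IL-2-omitted wells as unstimulated control.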

[3] = test system: IFNγ induced ICAM-1 (CD54) up-regulation in U937 human monocytic cells (JAK/Stat pathway); test: U937 IFNγ ICAM1 FACS Assay; conditions: Table III Example 6; 10 ng/mL IFNγ, 18-24 hours
Description: A549 lung epithelial cells and U937 cells up-regulate ICAM-1 (CD54) surface expression in response to a variety of different stimuli. Therefore, using ICAM-1 expression as readout, test compound effects on different signaling pathways can be assessed in the same cell type. Stimulation with IL-1β through the IL-1β receptor activates the TRAF6/NFκB pathway resulting in up-regulation of ICAM-1. IFNγ induces ICAM-1 up-regulation through activation of the JAK1/JAK2 pathway. The up-regulation of ICAM-1 can be quantified by flow cytometry across a compound dose curve and EC50 values are calculated. Exemplary assays of this type are described in greater detail in Examples 5 and 6. U937 human monocytic cells up-regulate ICAM-1 (CD54) surface expression in response to a variety of different stimuli. Therefore, using ICAM-1 expression as readout, compound effects on different signaling pathways can be assessed in the same cell type. IFNγ up-regulates ICAM-1 through activation of the JAK/Stat pathway. In this example, the up-regulation of ICAM-1 by IFNγ was assessed. […] The cells were then plated at a concentration of 100,000 cells per 160 μL in 96 well flat bottom plates. The test compounds were then diluted as follows: 10 mM test compound was diluted 1:5 in DMSO (3 μL 10 mM test compound in 12 μL DMSO), followed by a 1:3 serial dilution of test compound in DMSO (6 μL test compound serially diluted into 12 μL DMSO to give 3-fold dilutions). […] For control wells, 4 μL of DMSO was diluted into 76 μL 10% RPMI. […] The cells and compounds were then pre-incubated for 30 minutes at 37° C. with 5% CO2. […] The cells were kept under conditions for stimulation for 18-24 hours at 37° C. with 5% CO2. […] Cells were spun down at 1000 rpm for 5 minutes at 4° C., following which the supernatant was removed. […] The cells were then incubated on ice in the dark for 30 minutes. […] After suspension, the cells were centrifuged at 1000 rpm for 5 min at 4° C. […] Detection was performed using a BD LSR I System Flow Cytometer, purchased from BD Biosciences of San Jose, Calif. The live cells were gated for live scatter and the geometric mean of ICAM-APC was measured (Becton-Dickinson CellQuest software version 3.3, Franklin Lakes, N.J.). Both % live cells and ICAM-1 expression was analyzed. The assays for the test compounds were carried out in parallel with a control compound of known activity.

Row | Structure (SMILES) | IC50 [1] | IC50 [2] | IC50 [3]
1 | C#CCNS(=O)(=O)c1cc(Nc2ncc(C)c(Nc3cccc(CNS(=O)(=O)C4CC4)c3)n2)ccc1C [Compound I-214, N4-(3-cyclopropylsulfonylaminomethyl)phenyl-5-methyl-N2-(4-methyl-3-propargylaminosulfonyl)phenyl-2,4-pyrimidinediamine] | 162 nM | 136 nM | 190 nM
2 | Cc1cnc(Nc2ccc(S(=O)(=O)NC3CCCC3)cc2)nc1Nc1ccc(CNS(=O)(=O)C2CC2)cc1 [Compound I-166, N2-(4-cyclopentylaminosulfonyl)phenyl-N4-(4-cyclopropylsulfonylaminomethyl)phenyl-5-methyl-2,4-pyrimidinediamine] | 82.5 nM | 212 nM | 280 nM
3 | Cc1cnc(Nc2cccc(S(=O)(=O)NC3CCCC3)c2)nc1Nc1ccc(CNS(=O)(=O)C2CC2)cc1 [Compound I-170, N2-(3-cyclopentylaminosulfonyl)phenyl-N4-(4-cyclopropylsulfonylaminomethyl)phenyl-5-methyl-2,4-pyrimidinediamine] | 136 nM | 172 nM | 238 nM
4 | COCCCNS(=O)(=O)c1cc(Nc2ncc(C)c(Nc3cccc(CNS(=O)(=O)C4CC4)c3)n2)ccc1C [Compound I-217, N4-(3-cyclopropylsulfonylaminomethyl)phenyl-N2-[3-(3-methoxypropyl)aminosulfonyl-4-methyl]phenyl-5-methyl-2,4-pyrimidinediamine] | 80.2 nM | 129 nM | 496 nM
5 | CCCN(Cc1ccc(Nc2nc(Nc3ccc(S(N)(=O)=O)cc3)ncc2C)cc1)S(=O)(=O)C1CC1 [Compound I-79, N2-(4-aminosulfonyl)phenyl-N4-[4-(N-cyclopropylsulfonyl-N-propylamino)methyl]phenyl-5-methyl-2,4-pyrimidinediamine] | 98 nM | 92.3 nM | 345 nM
6 | CCS(=O)(=O)N[C@@H](C)c1ccc(Nc2nc(Nc3ccc(C)c(S(N)(=O)=O)c3)ncc2F)cc1 [Compound I-28, N2-(3-aminosulfonyl-4-methyl)phenyl-N4-[4-(1S-ethylsulfonylamino)ethyl]phenyl-5-fluoro-2,4-pyrimidinediamine] | 115 nM | 376 nM | 1110 nM
7 | Cc1ccc(Nc2ncc(F)c(Nc3ccc(CNS(=O)(=O)c4cccnc4)cc3)n2)cc1S(N)(=O)=O [Compound I-90, N2-(3-aminosulfonyl-4-methyl)phenyl-5-fluoro-N4-[4-(pyrid-3-yl)sulfonylaminomethyl]phenyl-2,4-pyrimidinediamine] | 152 nM | 349 nM | 2430 nM
8 | COCCNS(=O)(=O)c1ccc(Nc2ncc(C)c(Nc3ccc(CNS(=O)(=O)C4CC4)cc3)n2)cc1 [Compound I-183, N4-(4-cyclopropylsulfonylaminomethyl)phenyl-N2-[4-(2-methoxyethyl)aminosulfonyl]phenyl-5-methyl-2,4-pyrimidinediamine] | 66.7 nM | 155 nM | 207 nM
9 | Cc1ccc(Nc2ncc(C)c(Nc3cccc(CNS(=O)(=O)C4CC4)c3)n2)cc1S(=O)(=O)NCC1CC1 [Compound I-216, N2-(3-cyclopropylmethylaminosulfonyl-4-methyl)phenyl-N4-(3-cyclopropylsulfonylaminomethyl)phenyl-5-methyl-2,4-pyrimidinediamine] | 161 nM | 154 nM | 590 nM
10 | Cc1ccc(Nc2ncc(C)c(Nc3ccc(CNS(=O)(=O)c4cccnc4)cc3)n2)cc1S(N)(=O)=O [Compound I-101, N2-(3-aminosulfonyl-4-methyl)phenyl-5-methyl-N4-[4-(pyrid-3-yl)sulfonylaminomethyl]phenyl-2,4-pyrimidinediamine] | 62.4 nM | 224 nM | 433 nM
11 | Cc1ccc(Nc2ncc(C)c(Nc3cccc(CN(C)S(=O)(=O)C4CC4)c3)n2)cc1S(N)(=O)=O [Compound I-122, N2-(3-aminosulfonyl-4-methyl)phenyl-N4-[3-(N-cyclopropylsulfonyl-N-methyl)aminomethyl]phenyl-5-methyl-2,4-pyrimidinediamine] | 81.6 nM | 88.3 nM | 155 nM
12 | Cc1ccc(Nc2ncc(C)c(Nc3ccc(CNS(=O)(=O)CC(F)(F)F)cc3)n2)cc1S(N)(=O)=O [Compound I-98, N2-(3-aminosulfonyl-4-methyl)phenyl-5-methyl-N4-(4-trifluoroethylsulfonylaminomethyl)phenyl-2,4-pyrimidinediamine] | 25.3 nM | 52.1 nM | 152 nM
13 | CCS(=O)(=O)NCc1ccc(Nc2nc(Nc3cccc(S(N)(=O)=O)c3)ncc2F)cc1Cl [Compound I-75, N2-(3-aminosulfonyl)phenyl-N4-(3-chloro-4-ethylsulfonylaminomethyl)phenyl-5-fluoro-2,4-pyrimidinediamine] | 181 nM | 246 nM | 1200 nM
14 | Cc1cnc(Nc2ccc(S(N)(=O)=O)cc2)nc1Nc1ccc(CNS(=O)(=O)C2CC2)cc1 [Compound I-45, N2-(4-aminosulfonyl)phenyl-N4-(4-cyclopropylsulfonylaminomethyl)phenyl-5-methyl-2,4-pyrimidinediamine] | 59.8 nM | 29.3 nM | 284 nM
15 | CCCN(Cc1ccc(Nc2nc(Nc3ccc(C)c(S(N)(=O)=O)c3)ncc2F)cc1)S(=O)(=O)CC [Compound I-19, N2-(3-aminosulfonyl-4-methyl)phenyl-N4-[4-(N-ethylsulfonyl-N-propylamino)methyl]phenyl-5-fluoro-2,4-pyrimidinediamine] | 148 nM | 494 nM | 1640 nM
16 | CCCN(Cc1ccc(Nc2nc(Nc3ccc(C)c(S(N)(=O)=O)c3)ncc2C)cc1)S(=O)(=O)C1CC1 [Compound I-81, N2-(3-aminosulfonyl-4-methyl)phenyl-N4-[4-(N-cyclopropylsulfonyl-N-propylamino)methyl]phenyl-5-methyl-2,4-pyrimidinediamine] | 73.6 nM | 89.2 nM | 215 nM
17 | Cc1cnc(Nc2ccc(S(N)(=O)=O)cc2)nc1Nc1ccc(CNS(=O)(=O)C2CC2)c(Cl)c1 [Compound I-129, N2-(4-aminosulfonyl)phenyl-N4-(3-chloro-4-cyclopropylsulfonylaminomethyl)phenyl-5-methyl-2,4-pyrimidinediamine] | 161 nM | 432 nM | 2510 nM
18 | CCS(=O)(=O)NCCc1ccc(Nc2nc(Nc3ccc(S(N)(=O)=O)cc3)ncc2C)cc1 [Compound I-38, N2-(4-aminosulfonyl)phenyl-N4-[4-(2-ethylsulfonylamino)ethyl]phenyl-5-methyl-2,4-pyrimidinediamine] | 122 nM | 190 nM | 855 nM
19 | Cc1cnc(Nc2cccc(S(=O)(=O)Nc3ccccc3)c2)nc1Nc1ccc(CNS(=O)(=O)C2CC2)cc1 [Compound I-150, N4-(4-cyclopropylsulfonylaminomethyl)phenyl-5-methyl-N2-(3-phenylaminosulfonyl)phenyl-2,4-pyrimidinediamine] | 88.6 nM | 127 nM | 565 nM
20 | CC(C)S(=O)(=O)NCc1ccc(Nc2nc(Nc3cccc(S(N)(=O)=O)c3)ncc2F)cc1 [Compound I-66, N2-(3-aminosulfonyl)phenyl-5-fluoro-N4-(4-isopropylsulfonylaminomethyl)phenyl-2,4-pyrimidinediamine] | 69.4 nM | 65 nM | 472 nM
21 | CCS(=O)(=O)NCc1ccc(Nc2nc(Nc3cccc(S(N)(=O)=O)c3)ncc2F)cc1 [Compound I-9, N2-(3-aminosulfonyl)phenyl-N4-(4-ethylsulfonylaminomethyl)phenyl-5-fluoro-2,4-pyrimidinediamine] | 80.1 nM | 70.2 nM | 993 nM
